Measured values reported in patent publication US10610522B2, “Methods for retreating irritable bowel syndrome (IBS)” (Salix Pharmaceuticals, Inc., priority 2014, dated 2020).

System: d-IBS
Assay: Study of rifaximin BID doses vs placebo in subjects with d-IBS: adequate relief of IBS symptoms and bloating
Assay type: in vivo, human
Settings: for Percentage of subjects with adequate relief of IBS symptoms / Percentage of subjects with adequate relief of bloating symptom: RFX 550 mg BID 14 d, at least 2 of final 3 weeks of treatment phase (Weeks 1-4); for Adequate relief of bloating, post treatment, Failures / Adequate relief of bloating, post treatment, Success / Adequate relief of bloating, post treatment, Failure: RFX 550 2w (N = 54); for Patients with adequate relief of bloating / Patients with adequate relief of global IBS symptoms: 550 mg BID 14 d
Experimental: This example relates to a study of rifaximin in subjects with d-IBS. […] There were two measures of efficacy assessed. Subjects were questioned on the relief of overall IBS symptoms and bloating. […] The analyses defined success as a “yes” response to questions regarding adequate relief.
All subpopulations in the study responded to therapy. Baseline severity was determined using 7-point Lickert scales during screening for Abdominal Pain/Discomfort and Bloating, and the number, type (normal, hard, loose) and urgency of bowel movements.
Duration of effect was assessed in a follow-up period. Subjects that responded in the 4 week treatment period were followed for an additional 3 months.
The effect of treatment on the percentage of subjects who reported adequate relief of IBS and bloating symptoms for at least two of the final three weeks during the treatment phase (Weeks 1 to 4) is shown in Tables 5-7 and FIGS. 4-6 below.
The study assessed the effect over 12 weeks of follow-up on long-term adequate relief. Subjects who had adequate relief by Week 4 and remained symptom-free at Week 5 were followed during the post-treatment phase and shown in FIGS. 1 and 2. Superiority to placebo was maintained during the 12 weeks post-treatment follow-up. Results for IBS symptoms were RFX 550 mg BID 62.3% versus placebo 49.2%, and RFX 550 mg BID 59.3% versus 50.9% for placebo for the symptom of bloating through week 16. In assessing the follow-up data, there was statistical significance (p<0.05) of bloating and IBS symptoms for RFX 550 mg BID versus placebo.
Two measures of efficacy were assessed independently. The first was the proportion of subjects who provided a ‘yes’ response to the weekly SGA question: “In the past 7 days, have you had adequate relief of your IBS symptoms? (yes/no)”. The second endpoint was the proportion of subjects who provide a ‘yes’ response to the weekly individual symptom question: “In the past 7 days, have you had adequate relief of your symptom of bloating? (yes/no)”. Durability was based on the proportion of subjects that had adequate relief over the entire treatment phase.
It is reported herein that the severity of baseline symptoms of abdominal pain and bloating influenced the response to rifaximin treatment. The co-primary endpoints in this analysis assessed weekly yes/no responses to questions regarding adequate relief of global IBS symptoms and IBS-associated bloating. Severity of baseline IBS symptoms was evaluated as a potential confounder of clinical response and was categorized as mild/moderate or severe based on a mean score of ≤4 vs. >4 (on a 7-point scale) for bloating and abdominal pain.
The Weekly yes/no responses to questions regarding adequate relief of global IBS symptoms and IBS-associated bloating were assessed. Clinical response was defined as adequate relief for 2 of the final 3 treatment weeks (wk 2, 3, or 4). Severity of baseline IBS symptoms was evaluated as a potential confounder of clinical response and was categorized as mild/moderate or severe based on a mean score of ≤4 versus >4 (on a 7-point scale (0=not bothersome; 6=very bothersome)) for bloating and abdominal pain.

[1] = RFX 550 mg BID, responders followed through week 16
[2] = patients with mild/moderate abdominal pain at baseline
[3] = patients with mild/moderate bloating at baseline

CO[C@H]1/C=C/O[C@@]2(C)Oc3c(C)c(O)c4c(O)c(c5c(nc6cc(C)ccn65)c4c3C2=O)NC(=O)/C(C)=C\C=C\[C@H](C)[C@H](O)[C@@H](C)[C@@H](O)[C@@H](C)[C@H](OC(C)=O)[C@@H]1C [Rifaximin, (2S,16Z,18E,20S,21S,22R,23R,24R,25S,26S,27S,28E)-5,6,21,23,25 Pentahydroxy-27-methoxy-2,4,11,16,20,22,24,26-octamethyl-2,7-(epoxypentadeca-(1,11,13)trienimino) benzofuro (4,5-e) pyrido(1,2-a) benzimidazole-1,15(2H)-dione,25-acetate]
Treatment effect, Bloating (Age <65): 6.8%
Treatment effect, IBS Sx (Age <65): 6.9%
Treatment effect, Bloating (Age ≥65): 3.2%
Treatment effect, IBS Sx (Age ≥65): 19.1%
Treatment effect, Bloating (Diabetes History N): 7.4%
Treatment effect, IBS Sx (Diabetes History N): 9.5%
Treatment effect, Bloating (Diabetes History Y): −5.6%
Treatment effect, IBS Sx (Diabetes History Y): −12.7%
Treatment effect, Bloating (Disease Duration 10-20 y): 11.7%
Treatment effect, IBS Sx (Disease Duration 10-20 y): 20.1%
Treatment effect, Bloating (Disease Duration >20 y): 35.1%
Treatment effect, IBS Sx (Disease Duration >20 y): 46.6%
Treatment effect, Bloating (Disease Duration ≤10 y): 2.8%
Treatment effect, IBS Sx (Disease Duration ≤10 y): 1.8%
Adequate relief of IBS symptoms at end of treatment phase, Failure (Female, RFX 275 2w): 46 (56.8%) n (%)
Adequate relief of IBS symptoms at end of treatment phase, Success (Female, RFX 275 2w): 35 (43.2%) n (%)
Adequate relief of bloating at end of treatment phase, Failure (Female, RFX 275 2w): 52 (64.2%) n (%)
Adequate relief of bloating at end of treatment phase, Success (Female, RFX 275 2w): 29 (35.8%) n (%)
Adequate relief of IBS symptoms at end of treatment phase, Failure (Female, RFX 550 2w): 66 (48.2%) n (%)
Adequate relief of IBS symptoms at end of treatment phase, Success (Female, RFX 550 2w): 71 (51.8%) n (%)
Adequate relief of bloating at end of treatment phase, Failure (Female, RFX 550 2w): 74 (54.0%) n (%)
Adequate relief of bloating at end of treatment phase, Success (Female, RFX 550 2w): 63 (46.0%) n (%)
Adequate relief of IBS symptoms at end of treatment phase, Failure (Female, RFX 550 4w): 42 (55.3%) n (%)
Adequate relief of IBS symptoms at end of treatment phase, Success (Female, RFX 550 4w): 34 (44.7%) n (%)
Adequate relief of bloating at end of treatment phase, Failure (Female, RFX 550 4w): 44 (57.9%) n (%)
Adequate relief of bloating at end of treatment phase, Success (Female, RFX 550 4w): 32 (42.1%) n (%)
Adequate relief of IBS symptoms at end of treatment phase, Failure (Female, RFX 1100 2w): 44 (60.3%) n (%)
Adequate relief of IBS symptoms at end of treatment phase, Success (Female, RFX 1100 2w): 29 (39.7%) n (%)
Adequate relief of bloating at end of treatment phase, Failure (Female, RFX 1100 2w): 45 (61.6%) n (%)
Adequate relief of bloating at end of treatment phase, Success (Female, RFX 1100 2w): 28 (38.4%) n (%)
Treatment effect, Bloating (Gender F): 3.9%
Treatment effect, IBS Sx (Gender F): 3.5%
Treatment effect, Bloating (Gender M): 13.6%
Treatment effect, IBS Sx (Gender M): 21%
Adequate relief of IBS symptoms at end of treatment phase, Failure (Male, RFX 275 2w): 9 (64.3%) n (%)
Adequate relief of IBS symptoms at end of treatment phase, Success (Male, RFX 275 2w): 5 (35.7%) n (%)
Adequate relief of bloating at end of treatment phase, Failure (Male, RFX 275 2w): 8 (57.1%) n (%)
Adequate relief of bloating at end of treatment phase, Success (Male, RFX 275 2w): 6 (42.9%) n (%)
Adequate relief of IBS symptoms at end of treatment phase, Failure (Male, RFX 550 2w): 25 (46.3%) n (%)
Adequate relief of IBS symptoms at end of treatment phase, Success (Male, RFX 550 2w): 29 (53.7%) n (%)
Adequate relief of bloating at end of treatment phase, Failure (Male, RFX 550 2w): 29 (53.7%) n (%)
Adequate relief of bloating at end of treatment phase, Success (Male, RFX 550 2w): 25 (46.3%) n (%)
Adequate relief of IBS symptoms at end of treatment phase, Failure (Male, RFX 550 4w): 15 (68.2%) n (%)
Adequate relief of IBS symptoms at end of treatment phase, Success (Male, RFX 550 4w): 7 (31.8%) n (%)
Adequate relief of bloating at end of treatment phase, Failure (Male, RFX 550 4w): 16 (72.7%) n (%)
Adequate relief of bloating at end of treatment phase, Success (Male, RFX 550 4w): 6 (27.3%) n (%)
Adequate relief of IBS symptoms at end of treatment phase, Failure (Male, RFX 1100 2w): 14 (53.8%) n (%)
Adequate relief of IBS symptoms at end of treatment phase, Success (Male, RFX 1100 2w): 12 (46.2%) n (%)
Adequate relief of bloating at end of treatment phase, Failure (Male, RFX 1100 2w): 16 (61.5%) n (%)
Adequate relief of bloating at end of treatment phase, Success (Male, RFX 1100 2w): 10 (38.5%) n (%)
Percentage of subjects with adequate relief of IBS symptoms (ITT): 52%
Percentage of subjects with adequate relief of bloating symptom (ITT): 46%
Percentage of subjects with adequate relief of IBS symptoms (ITT, listed as RFX): 52.4%
Percentage of subjects with adequate relief of bloating symptom (ITT, listed as RFX): 46.1%
Percentage of subjects with 0 weeks with adequate relief of IBS symptoms (RFX 550 mg BID, ITT): 33%
Percentage of subjects with 0 weeks with adequate relief of bloating symptoms (RFX 550 mg BID, ITT): 35%
Percentage of subjects with 1 week with adequate relief of IBS symptoms (RFX 550 mg BID, ITT): 11%
Percentage of subjects with 1 week with adequate relief of bloating symptoms (RFX 550 mg BID, ITT): 14%
Percentage of subjects with 2 weeks with adequate relief of IBS symptoms (RFX 550 mg BID, ITT): 15%
Percentage of subjects with 2 weeks with adequate relief of bloating symptoms (RFX 550 mg BID, ITT): 15%
Percentage of subjects with 3 weeks with adequate relief of IBS symptoms (RFX 550 mg BID, ITT): 23%
Percentage of subjects with 3 weeks with adequate relief of bloating symptoms (RFX 550 mg BID, ITT): 20%
Percentage of subjects with 4 weeks with adequate relief of IBS symptoms (RFX 550 mg BID, ITT): 16%
Percentage of subjects with 4 weeks with adequate relief of bloating symptoms (RFX 550 mg BID, ITT): 14%
Long-term adequate relief of IBS symptoms in post-treatment follow-up [1]: 62.3%
Long-term adequate relief of the symptom of bloating in post-treatment follow-up [1]: 59.3%
Adequate relief of bloating, post treatment, Failures (Week 6): 5 (9.3%) n (%)
Adequate relief of bloating, post treatment, Success (Week 6): 49 (90.7%) n (%)
Adequate relief of bloating, post treatment, Failures (Week 7): 9 (16.7%) n (%)
Adequate relief of bloating, post treatment, Success (Week 7): 45 (83.3%) n (%)
Adequate relief of bloating, post treatment, Failures (Week 8): 7 (13.0%) n (%)
Adequate relief of bloating, post treatment, Success (Week 8): 47 (87.0%) n (%)
Adequate relief of bloating, post treatment, Failures (Week 9): 15 (27.8%) n (%)
Adequate relief of bloating, post treatment, Success (Week 9): 39 (72.2%) n (%)
Adequate relief of bloating, post treatment, Failures (Week 10): 15 (27.8%) n (%)
Adequate relief of bloating, post treatment, Success (Week 10): 39 (72.2%) n (%)
Adequate relief of bloating, post treatment, Failures (Week 11): 19 (35.2%) n (%)
Adequate relief of bloating, post treatment, Success (Week 11): 35 (64.8%) n (%)
Adequate relief of bloating, post treatment, Failure (Week 12): 18 (33.3%) n (%)
Adequate relief of bloating, post treatment, Success (Week 12): 36 (66.7%) n (%)
Adequate relief of bloating, post treatment, Failure (Week 13): 21 (38.9%) n (%)
Adequate relief of bloating, post treatment, Success (Week 13): 33 (61.1%) n (%)
Adequate relief of bloating, post treatment, Failure (Week 14): 20 (37.0%) n (%)
Adequate relief of bloating, post treatment, Success (Week 14): 34 (63.0%) n (%)
Adequate relief of bloating, post treatment, Failure (Week 15): 23 (42.6%) n (%)
Adequate relief of bloating, post treatment, Success (Week 15): 31 (57.4%) n (%)
Adequate relief of bloating, post treatment, Failure (Week 16): 22 (40.7%) n (%)
Adequate relief of bloating, post treatment, Success (Week 16): 32 (59.3%) n (%)
Treatment effect, Bloating (aIBS): 31.4%*, 31.4%
Treatment effect, IBS Sx (aIBS): 31.4%*, 31.4%
Treatment effect, Bloating (dIBS only): 4.5%
Treatment effect, IBS Sx (dIBS only): 6.3%
Patients with adequate relief of bloating [2]: 44%
Patients with adequate relief of global IBS symptoms [2]: 50%
Patients with adequate relief of bloating [3]: 47%
Patients with adequate relief of global IBS symptoms [3]: 56%
